Test results as given in article PMC5218480 (PLoS ONE, 2017).

Tested on: MV-4-11 cells
Assay: Gene expression microarray analysis (Affymetrix PrimeView) and GSEA
Assay type: cell-based, human
Design: RFU PODN (11730768_x_at) / Fold change /veh PODN (11730768_x_at) / RFU LINC00158 (11744669_a_at) / Fold change /veh LINC00158 (11744669_a_at) / RFU DUSP10 (11751237_a_at) / Fold change /veh DUSP10 (11751237_a_at) / RFU ID3 (11757404_x_at) / Fold change /veh ID3 (11757404_x_at) / RFU PLEKHG5 (11737974_s_at) / Fold change /veh PLEKHG5 (11737974_s_at) / RFU LRRC4B (11730491_at) / Fold change /veh LRRC4B (11730491_at) / RFU GIMAP4 (11747438_a_at) / Fold change /veh GIMAP4 (11747438_a_at) / RFU KRT8 (11758183_x_at) / Fold change /veh KRT8 (11758183_x_at) / RFU CNN1 (11734310_a_at) / Fold change /veh CNN1 (11734310_a_at) / RFU VPS37D (11726825_at) / Fold change /veh VPS37D (11726825_at) / RFU C10orf10 (11716522_x_at) / Fold change /veh C10orf10 (11716522_x_at) / RFU KIR2DL2 /// KIR2DL4 /// KIR2DL5A /// KIR2DL5B /// KIR2DS1 /// KIR2DS2 /// KIR2DS3 /// KIR2DS4 /// KIR3DL3 /// KIR3DL3 /// KIR3DS1 (11738374_at) / Fold change /veh KIR2DL2 /// KIR2DL4 /// KIR2DL5A /// KIR2DL5B /// KIR2DS1 /// KIR2DS2 /// KIR2DS3 /// KIR2DS4 /// KIR3DL3 /// KIR3DL3 /// KIR3DS1 (11738374_at) / RFU C1QL1 (11718748_at) / Fold change /veh C1QL1 (11718748_at) / RFU TMPRSS4 (11747572_a_at) / Fold change /veh TMPRSS4 (11747572_a_at) / RFU HAMP (11756126_x_at) / Fold change /veh HAMP (11756126_x_at) / RFU RNFT2 (11725882_a_at) / Fold change /veh RNFT2 (11725882_a_at) / RFU NR4A2 (11747474_a_at) / Fold change /veh NR4A2 (11747474_a_at) / RFU ABCC12 (11746883_a_at) / Fold change /veh ABCC12 (11746883_a_at) / RFU TMEM136 (11760407_x_at) / Fold change /veh TMEM136 (11760407_x_at) / RFU CLDN22 /// WWC2 (11732394_at) / Fold change /veh CLDN22 /// WWC2 (11732394_at) / RFU HLA-DPB1 (11760878_x_at) / Fold change /veh HLA-DPB1 (11760878_x_at) / RFU SPINT1 (11716480_a_at) / Fold change /veh SPINT1 (11716480_a_at) / RFU GAP43 (11754022_s_at) / Fold change /veh GAP43 (11754022_s_at) / RFU A4GNT (11735810_at) / Fold change /veh A4GNT (11735810_at) / RFU PRB3 (11715151_x_at) / Fold change /veh PRB3 (11715151_x_at) / RFU TUBB4B (11761932_at) / Fold change /veh TUBB4B (11761932_at) / RFU CAPN14 (11732068_a_at) / Fold change /veh CAPN14 (11732068_a_at) / RFU TMCC2 (11721928_a_at) / Fold change /veh TMCC2 (11721928_a_at) / RFU IRGQ (11745062_a_at) / Fold change /veh IRGQ (11745062_a_at) / RFU FAM174B (11720279_a_at) / Fold change /veh FAM174B (11720279_a_at) / RFU TMPRSS4 (11748680_a_at) / Fold change /veh TMPRSS4 (11748680_a_at) / RFU FAM212B (11763350_a_at) / Fold change /veh FAM212B (11763350_a_at) / RFU PLEKHG5 (11743358_a_at) / Fold change /veh PLEKHG5 (11743358_a_at) / RFU ZSCAN30 (11745921_a_at) / Fold change /veh ZSCAN30 (11745921_a_at) / RFU CMKLR1 (11741424_a_at) / Fold change /veh CMKLR1 (11741424_a_at) / RFU LOC101060620 /// MAPK8IP1 (11723275_at) / Fold change /veh LOC101060620 /// MAPK8IP1 (11723275_at) / RFU SPTSSB (11747773_x_at) / Fold change /veh SPTSSB (11747773_x_at) / RFU PRSS12 (11739890_at) / Fold change /veh PRSS12 (11739890_at) / RFU BIN1 (11741810_x_at) / Fold change /veh BIN1 (11741810_x_at) / RFU WNT11 (11732464_a_at) / Fold change /veh WNT11 (11732464_a_at) / RFU C10orf10 (11716521_a_at) / Fold change /veh C10orf10 (11716521_a_at) / RFU C5orf56 (11738089_at) / Fold change /veh C5orf56 (11738089_at) / RFU CYB561 (11721691_x_at) / Fold change /veh CYB561 (11721691_x_at) / RFU ANKRD19P (11752326_a_at) / Fold change /veh ANKRD19P (11752326_a_at) / RFU OR2T12 /// OR2T33 /// OR2T8 (11738714_s_at) / Fold change /veh OR2T12 /// OR2T33 /// OR2T8 (11738714_s_at) / RFU VCAN (11748164_a_at) / Fold change /veh VCAN (11748164_a_at) / RFU JSRP1 (11732532_at) / Fold change /veh JSRP1 (11732532_at) / RFU KRTAP10-11 (11738290_x_at) / Fold change /veh KRTAP10-11 (11738290_x_at) / RFU MYO3A (11730013_a_at) / Fold change /veh MYO3A (11730013_a_at) / RFU EBF3 (11725865_a_at) / Fold change /veh EBF3 (11725865_a_at) / RFU CAMK2N1 (11719241_x_at) / Fold change /veh CAMK2N1 (11719241_x_at) / RFU C5orf56 (11738088_a_at) / Fold change /veh C5orf56 (11738088_a_at) / RFU OLFML3 (11715873_a_at) / Fold change /veh OLFML3 (11715873_a_at) / RFU LOC100653217 /// NTM (11731650_a_at) / Fold change /veh LOC100653217 /// NTM (11731650_a_at) / RFU MAPK11 (11762145_a_at) / Fold change /veh MAPK11 (11762145_a_at) / RFU FIZ1 (11724087_x_at) / Fold change /veh FIZ1 (11724087_x_at) / RFU OASL (11726364_x_at) / Fold change /veh OASL (11726364_x_at) / RFU SOX15 (11748057_x_at) / Fold change /veh SOX15 (11748057_x_at) / RFU CD79A (11719716_a_at) / Fold change /veh CD79A (11719716_a_at) / RFU HIST1H1D (11736915_at) / Fold change /veh HIST1H1D (11736915_at) / RFU CASKIN2 (11723855_a_at) / Fold change /veh CASKIN2 (11723855_a_at) / RFU LOC730098 (11760151_x_at) / Fold change /veh LOC730098 (11760151_x_at) / RFU OR4N2 (11742367_at) / Fold change /veh OR4N2 (11742367_at) / RFU PRRT2 (11749266_a_at) / Fold change /veh PRRT2 (11749266_a_at) / RFU SNX32 (11753110_a_at) / Fold change /veh SNX32 (11753110_a_at) / RFU CDHR5 (11726645_a_at) / Fold change /veh CDHR5 (11726645_a_at) / RFU RCAN1 (11760418_a_at) / Fold change /veh RCAN1 (11760418_a_at) / RFU FAM167A (11723789_a_at) / Fold change /veh FAM167A (11723789_a_at) / RFU FAM26E (11764081_at) / Fold change /veh FAM26E (11764081_at) / RFU ISYNA1 (11749810_s_at) / Fold change /veh ISYNA1 (11749810_s_at) / RFU ACY1 (11761880_at) / Fold change /veh ACY1 (11761880_at) / RFU 11764098_at / Fold change /veh 11764098_at / RFU SAMD14 (11745864_x_at) / Fold change /veh SAMD14 (11745864_x_at) / RFU NPB (11741838_a_at) / Fold change /veh NPB (11741838_a_at) / RFU TMPRSS6 (11731388_a_at) / Fold change /veh TMPRSS6 (11731388_a_at) / RFU KRTAP10-2 (11738614_at) / Fold change /veh KRTAP10-2 (11738614_at) / RFU ARHGAP8 /// PRR5-ARHGAP8 (11727945_x_at) / Fold change /veh ARHGAP8 /// PRR5-ARHGAP8 (11727945_x_at) / RFU KRTAP5-7 /// NADSYN1 (11734609_at) / Fold change /veh KRTAP5-7 /// NADSYN1 (11734609_at) / RFU RASL12 (11751679_a_at) / Fold change /veh RASL12 (11751679_a_at) / RFU CDKN2B (11736163_a_at) / Fold change /veh CDKN2B (11736163_a_at) / RFU PRF1 (11729649_at) / Fold change /veh PRF1 (11729649_at) / RFU, ZNF638 /// ZNF638-IT1 / Fold change vs veh, ZNF638 /// ZNF638-IT1 / RFU, PANK3 / Fold change vs veh, PANK3 / RFU, SH3YL1 / Fold change vs veh, SH3YL1 / RFU, ZEB2 / Fold change vs veh, ZEB2 / RFU, NRIP1 / Fold change vs veh, NRIP1 / RFU, PTTG1IP / Fold change vs veh, PTTG1IP / RFU, CAPN2 / Fold change vs veh, CAPN2 / RFU, MED14 / Fold change vs veh, MED14 / RFU, SNORA58 / Fold change vs veh, SNORA58 / RFU, C1orf63 / Fold change vs veh, C1orf63 / RFU, LRRFIP1 / Fold change vs veh, LRRFIP1 / RFU, NDUFAF7 / Fold change vs veh, NDUFAF7 / RFU, SLC12A2 / Fold change vs veh, SLC12A2 / RFU, IBTK / Fold change vs veh, IBTK / RFU, ESF1 / Fold change vs veh, ESF1 / Fold change vs veh, TMEM50B / RFU, TAOK1 / Fold change vs veh, TAOK1 / RFU, ACBD3 / Fold change vs veh, ACBD3 / RFU, TMA16 / Fold change vs veh, TMA16 / RFU, RWDD3 / Fold change vs veh, RWDD3 / RFU, BCAT1 / Fold change vs veh, BCAT1 / RFU, EDEM3 / Fold change vs veh, EDEM3 / RFU, TMEM33 / Fold change vs veh, TMEM33 / RFU, WDR75 / Fold change vs veh, WDR75 / RFU, AHCTF1 / Fold change vs veh, AHCTF1 / RFU, TFRC / Fold change vs veh, TFRC / RFU, ZDHHC17 / Fold change vs veh, ZDHHC17 / RFU, NOM1 / Fold change vs veh, NOM1 / RFU, ARL8B / Fold change vs veh, ARL8B / RFU, ZBTB11 / Fold change vs veh, ZBTB11 / RFU, TAMM41 / Fold change vs veh, TAMM41 / RFU, KIAA1704 /// LOC100996395 / Fold change vs veh, KIAA1704 /// LOC100996395 / RFU, ING1 / Fold change vs veh, ING1 / RFU, TRMT61B / Fold change vs veh, TRMT61B / RFU, FUBP3 / Fold change vs veh, FUBP3 / RFU, TP53 / Fold change vs veh, TP53 / RFU, TNKS2 / Fold change vs veh, TNKS2 / RFU, ZFP14 / Fold change vs veh, ZFP14 / RFU, ACTR2 / Fold change vs veh, ACTR2 / RFU, PPP3R1 / Fold change vs veh, PPP3R1 / RFU, PIK3R1 / Fold change vs veh, PIK3R1 / RFU, HNRNPA1 / Fold change vs veh, HNRNPA1 / RFU, RNF170 / Fold change vs veh, RNF170 / RFU, ZNF28 / Fold change vs veh, ZNF28 / RFU, RNGTT / Fold change vs veh, RNGTT / RFU, OGT / Fold change vs veh, OGT / RFU, BRD1 / Fold change vs veh, BRD1 / RFU, MARS / Fold change vs veh, MARS / RFU, ZNF655 / Fold change vs veh, ZNF655 / RFU, FAHD1 / Fold change vs veh, FAHD1 / RFU, BDP1 / Fold change vs veh, BDP1 / RFU, LRRCC1 / Fold change vs veh, LRRCC1 / RFU, ARID1A / Fold change vs veh, ARID1A / RFU, ZNF146 / Fold change vs veh, ZNF146 / RFU, ZNF330 / Fold change vs veh, ZNF330 / RFU, GPN3 / Fold change vs veh, GPN3 / RFU, C9orf123 / Fold change vs veh, C9orf123 / RFU, N4BP2L2 / Fold change vs veh, N4BP2L2 / RFU, ARFIP1 / Fold change vs veh, ARFIP1 / RFU, FAM179B / Fold change vs veh, FAM179B / RFU, BCL10 / Fold change vs veh, BCL10 / RFU, UHRF1BP1L / Fold change vs veh, UHRF1BP1L / RFU, BET1 / Fold change vs veh, BET1 / RFU, CNOT2 / Fold change vs veh, CNOT2 / RFU, ZNF268 / Fold change vs veh, ZNF268 / Fold change vs veh, ZNF507 / RFU, DGCR2 / Fold change vs veh, DGCR2 / RFU, WDSUB1 / Fold change vs veh, WDSUB1 / Fold change vs veh, HSP90B1 /// MIR3652 / RFU, ADSS / Fold change vs veh, ADSS / RFU, GK / Fold change vs veh, GK / RFU, ZNF148 / Fold change vs veh, ZNF148 / RFU, TAF9 / Fold change vs veh, TAF9 / RFU, SLC1A5 / Fold change vs veh, SLC1A5 / RFU, SLMO2 / Fold change vs veh, SLMO2 / RFU, ABCC4 / Fold change vs veh, ABCC4 / RFU, LOC101060439 /// RAP1B / Fold change vs veh, LOC101060439 /// RAP1B / RFU, RFX7 / Fold change vs veh, RFX7 / RFU, GTPBP10 / Fold change vs veh, GTPBP10 / RFU, CNEP1R1 / Fold change vs veh, CNEP1R1 / RFU, BIVM-ERCC5 /// ERCC5 / Fold change vs veh, BIVM-ERCC5 /// ERCC5 / RFU, ILF3 / Fold change vs veh, ILF3 / RFU 11762660_at / Fold change /veh 11762660_at / RFU VCAN (11757783_s_at) / Fold change /veh VCAN (11757783_s_at) / RFU DDX43 (11728927_at) / Fold change /veh DDX43 (11728927_at) / RFU KRT8 (11758188_x_at) / Fold change /veh KRT8 (11758188_x_at) / RFU NKD1 (11759106_at) / Fold change /veh NKD1 (11759106_at) / RFU SRD5A1 (11742802_a_at) / Fold change /veh SRD5A1 (11742802_a_at) / RFU TPSAB1 /// TPSB2 (11721975_s_at) / Fold change /veh TPSAB1 /// TPSB2 (11721975_s_at) / RFU GSTM3 (11746129_a_at) / Fold change /veh GSTM3 (11746129_a_at) / RFU IL23R (11737362_x_at) / Fold change /veh IL23R (11737362_x_at) / RFU TMEM51 (11727254_a_at) / Fold change /veh TMEM51 (11727254_a_at) / RFU PIWIL2 (11732686_x_at) / Fold change /veh PIWIL2 (11732686_x_at) / RFU ORM1 (11744905_x_at) / Fold change /veh ORM1 (11744905_x_at) / RFU CCDC152 (11743942_at) / Fold change /veh CCDC152 (11743942_at) / RFU ECM1 (11717891_a_at) / Fold change /veh ECM1 (11717891_a_at) / RFU IL23R (11748794_a_at) / Fold change /veh IL23R (11748794_a_at) / RFU TNFAIP8L3 (11732012_x_at) / Fold change /veh TNFAIP8L3 (11732012_x_at) / RFU MBOAT4 (11741988_at) / Fold change /veh MBOAT4 (11741988_at) / RFU 11764193_at / Fold change /veh 11764193_at / RFU TMEM53 (11763286_at) / Fold change /veh TMEM53 (11763286_at) / RFU MAGEB2 (11727129_at) / Fold change /veh MAGEB2 (11727129_at) / RFU TMEM200A (11744735_a_at) / Fold change /veh TMEM200A (11744735_a_at) / RFU CCDC152 (11751479_a_at) / Fold change /veh CCDC152 (11751479_a_at) / RFU FAM211A (11726209_a_at) / Fold change /veh FAM211A (11726209_a_at) / RFU RGS16 (11746705_a_at) / Fold change /veh RGS16 (11746705_a_at) / RFU VCAN (11755009_s_at) / Fold change /veh VCAN (11755009_s_at) / RFU RHOB (11743442_s_at) / Fold change /veh RHOB (11743442_s_at) / RFU RGS16 (11720943_a_at) / Fold change /veh RGS16 (11720943_a_at) / RFU RGS16 (11720944_at) / Fold change /veh RGS16 (11720944_at) / RFU, VPS4B / Fold change vs veh, VPS4B / RFU, CREB1 / Fold change vs veh, CREB1 / RFU, DNAJC13 / Fold change vs veh, DNAJC13 / RFU, GNAQ / Fold change vs veh, GNAQ / RFU, CDK5R1 / Fold change vs veh, CDK5R1 / RFU, ZRANB3 / Fold change vs veh, ZRANB3 / RFU, CUL4A / Fold change vs veh, CUL4A / RFU, CCNY / Fold change vs veh, CCNY / RFU, UFL1 / Fold change vs veh, UFL1 / RFU, COG3 / Fold change vs veh, COG3 / RFU, DIAPH2 / Fold change vs veh, DIAPH2 / RFU, SKA2 / Fold change vs veh, SKA2 / RFU, AFF3 / Fold change vs veh, AFF3 / RFU, LMF1 / Fold change vs veh, LMF1 / RFU, IPO11 / Fold change vs veh, IPO11 / RFU, DFFB / Fold change vs veh, DFFB / RFU, FOXP1 / Fold change vs veh, FOXP1 / RFU, CARD8 / Fold change vs veh, CARD8 / RFU, STRN3 / Fold change vs veh, STRN3 / RFU, ADK / Fold change vs veh, ADK / RFU, RASSF2 / Fold change vs veh, RASSF2 / RFU, WIPF1 / Fold change vs veh, WIPF1 / RFU, LARP1B / Fold change vs veh, LARP1B / RFU, RASA1 / Fold change vs veh, RASA1 / RFU, RB1 / Fold change vs veh, RB1 / RFU, PPFIA1 / Fold change vs veh, PPFIA1 / RFU, MAT2A / Fold change vs veh, MAT2A / RFU, CCT5 / Fold change vs veh, CCT5 / RFU, WDR92 / Fold change vs veh, WDR92 / RFU, CUX1 / Fold change vs veh, CUX1 / RFU, TTC7A / Fold change vs veh, TTC7A / RFU, TMEM135 / Fold change vs veh, TMEM135 / RFU, DEPTOR / Fold change vs veh, DEPTOR / RFU, CPM / Fold change vs veh, CPM / RFU, DNAJB6 / Fold change vs veh, DNAJB6 / RFU, CACNA2D3 / Fold change vs veh, CACNA2D3 / RFU, DTX4 / Fold change vs veh, DTX4 / RFU, TFCP2 / Fold change vs veh, TFCP2 / RFU, GMCL1 /// GMCL1P1 / Fold change vs veh, GMCL1 /// GMCL1P1 / RFU, AEBP2 / Fold change vs veh, AEBP2 / RFU, SNHG1 /// SNORD22 /// SNORD25 /// SNORD26 /// SNORD27 /// SNORD28 /// SNORD29 /// SNORD31 / Fold change vs veh, SNHG1 /// SNORD22 /// SNORD25 /// SNORD26 /// SNORD27 /// SNORD28 /// SNORD29 /// SNORD31 / Fold change (Aza/veh), C12orf56 (ProbeSet 11735607_a_at) / Fold change (ACY-1035/veh), C12orf56 (ProbeSet 11735607_a_at) / Fold change (Aza/veh), FGFR1OP (ProbeSet 11751329_s_at) / Fold change (ACY-1035/veh), FGFR1OP (ProbeSet 11751329_s_at) / Fold change (Aza/veh), VPS36 (ProbeSet 11739960_a_at) / Fold change (ACY-1035/veh), VPS36 (ProbeSet 11739960_a_at) / RFU SYPL1 (11715823_x_at) / Fold change /veh SYPL1 (11715823_x_at) / RFU IGFBP7 (11715501_s_at) / Fold change /veh IGFBP7 (11715501_s_at) / RFU REEP3 (11722064_at) / Fold change /veh REEP3 (11722064_at) / RFU IGLL1 (11728026_x_at) / Fold change /veh IGLL1 (11728026_x_at): dose or concentration left out as unconfirmed
Settings: MV-4-11 cells, 48 hours

`Nc1ccc(-c2cccs2)cc1NC(=O)c1ccc2c(c1)cc(C1CC1)n2CCN1CCOCC1` [ACY-1035] was tested, and the “RFU SAMD14 (11745864_x_at)” value was 19.46 RFU.
